Data as given in the supplement of paper PMC12463676, “Small-molecule dissolution of stress granules by redox modulation benefits ALS models” (Nature Chemical Biology, 2025).

These targets were tested with NC(=O)CCCCC1CCSS1 [lipoamide] (assay: thermal stability z-score vs DMSO; higher = more thermally stabilized by treatment). Conditions: HeLa; lipoamide concentration 100 µM; arsenate co-treatment: 1 mM arsenate 1 h.
Experimental: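 Cellular thermal proteome profiling in HeLa cells. Cells were treated with 100 µM lipoamide for 1 h, with or without 1 mM arsenate for a further 1 h, then heated to ten temperatures (37-66.3 °C), and soluble protein was quantified by TMT mass spectrometry relative to 0.1% DMSO controls. The thermal stability score (sum of log2 fold changes minus the abundance score) was transformed to a z-score; mean of n = 3 experiments.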
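Note: each temperature applied for 3 min, abundance score taken as mean log2 fold change at the two lowest temperatures, z-score obtained by mean subtraction and division by SD.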

Sequence of UniProt Q9NUQ8 (Q9NUQ8 whole entry): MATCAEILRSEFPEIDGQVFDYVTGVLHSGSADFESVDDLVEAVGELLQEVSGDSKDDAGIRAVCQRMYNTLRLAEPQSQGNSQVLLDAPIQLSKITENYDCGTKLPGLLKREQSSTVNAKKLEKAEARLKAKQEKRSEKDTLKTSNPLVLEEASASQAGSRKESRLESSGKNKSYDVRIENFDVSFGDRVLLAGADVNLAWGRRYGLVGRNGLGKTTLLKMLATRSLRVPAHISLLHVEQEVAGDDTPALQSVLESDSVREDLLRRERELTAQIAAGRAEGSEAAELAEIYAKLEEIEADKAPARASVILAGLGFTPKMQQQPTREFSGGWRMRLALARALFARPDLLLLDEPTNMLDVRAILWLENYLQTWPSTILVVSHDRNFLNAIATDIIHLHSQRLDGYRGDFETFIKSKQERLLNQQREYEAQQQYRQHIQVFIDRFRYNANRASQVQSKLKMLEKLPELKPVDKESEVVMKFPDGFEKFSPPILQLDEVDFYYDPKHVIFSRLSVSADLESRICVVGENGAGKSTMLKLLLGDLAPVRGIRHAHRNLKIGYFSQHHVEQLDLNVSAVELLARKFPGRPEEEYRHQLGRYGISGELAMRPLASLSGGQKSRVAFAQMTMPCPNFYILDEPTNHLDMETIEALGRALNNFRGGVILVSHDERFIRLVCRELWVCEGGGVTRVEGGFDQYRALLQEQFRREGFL
Sequence of UniProt Q14789 (Q14789 whole entry): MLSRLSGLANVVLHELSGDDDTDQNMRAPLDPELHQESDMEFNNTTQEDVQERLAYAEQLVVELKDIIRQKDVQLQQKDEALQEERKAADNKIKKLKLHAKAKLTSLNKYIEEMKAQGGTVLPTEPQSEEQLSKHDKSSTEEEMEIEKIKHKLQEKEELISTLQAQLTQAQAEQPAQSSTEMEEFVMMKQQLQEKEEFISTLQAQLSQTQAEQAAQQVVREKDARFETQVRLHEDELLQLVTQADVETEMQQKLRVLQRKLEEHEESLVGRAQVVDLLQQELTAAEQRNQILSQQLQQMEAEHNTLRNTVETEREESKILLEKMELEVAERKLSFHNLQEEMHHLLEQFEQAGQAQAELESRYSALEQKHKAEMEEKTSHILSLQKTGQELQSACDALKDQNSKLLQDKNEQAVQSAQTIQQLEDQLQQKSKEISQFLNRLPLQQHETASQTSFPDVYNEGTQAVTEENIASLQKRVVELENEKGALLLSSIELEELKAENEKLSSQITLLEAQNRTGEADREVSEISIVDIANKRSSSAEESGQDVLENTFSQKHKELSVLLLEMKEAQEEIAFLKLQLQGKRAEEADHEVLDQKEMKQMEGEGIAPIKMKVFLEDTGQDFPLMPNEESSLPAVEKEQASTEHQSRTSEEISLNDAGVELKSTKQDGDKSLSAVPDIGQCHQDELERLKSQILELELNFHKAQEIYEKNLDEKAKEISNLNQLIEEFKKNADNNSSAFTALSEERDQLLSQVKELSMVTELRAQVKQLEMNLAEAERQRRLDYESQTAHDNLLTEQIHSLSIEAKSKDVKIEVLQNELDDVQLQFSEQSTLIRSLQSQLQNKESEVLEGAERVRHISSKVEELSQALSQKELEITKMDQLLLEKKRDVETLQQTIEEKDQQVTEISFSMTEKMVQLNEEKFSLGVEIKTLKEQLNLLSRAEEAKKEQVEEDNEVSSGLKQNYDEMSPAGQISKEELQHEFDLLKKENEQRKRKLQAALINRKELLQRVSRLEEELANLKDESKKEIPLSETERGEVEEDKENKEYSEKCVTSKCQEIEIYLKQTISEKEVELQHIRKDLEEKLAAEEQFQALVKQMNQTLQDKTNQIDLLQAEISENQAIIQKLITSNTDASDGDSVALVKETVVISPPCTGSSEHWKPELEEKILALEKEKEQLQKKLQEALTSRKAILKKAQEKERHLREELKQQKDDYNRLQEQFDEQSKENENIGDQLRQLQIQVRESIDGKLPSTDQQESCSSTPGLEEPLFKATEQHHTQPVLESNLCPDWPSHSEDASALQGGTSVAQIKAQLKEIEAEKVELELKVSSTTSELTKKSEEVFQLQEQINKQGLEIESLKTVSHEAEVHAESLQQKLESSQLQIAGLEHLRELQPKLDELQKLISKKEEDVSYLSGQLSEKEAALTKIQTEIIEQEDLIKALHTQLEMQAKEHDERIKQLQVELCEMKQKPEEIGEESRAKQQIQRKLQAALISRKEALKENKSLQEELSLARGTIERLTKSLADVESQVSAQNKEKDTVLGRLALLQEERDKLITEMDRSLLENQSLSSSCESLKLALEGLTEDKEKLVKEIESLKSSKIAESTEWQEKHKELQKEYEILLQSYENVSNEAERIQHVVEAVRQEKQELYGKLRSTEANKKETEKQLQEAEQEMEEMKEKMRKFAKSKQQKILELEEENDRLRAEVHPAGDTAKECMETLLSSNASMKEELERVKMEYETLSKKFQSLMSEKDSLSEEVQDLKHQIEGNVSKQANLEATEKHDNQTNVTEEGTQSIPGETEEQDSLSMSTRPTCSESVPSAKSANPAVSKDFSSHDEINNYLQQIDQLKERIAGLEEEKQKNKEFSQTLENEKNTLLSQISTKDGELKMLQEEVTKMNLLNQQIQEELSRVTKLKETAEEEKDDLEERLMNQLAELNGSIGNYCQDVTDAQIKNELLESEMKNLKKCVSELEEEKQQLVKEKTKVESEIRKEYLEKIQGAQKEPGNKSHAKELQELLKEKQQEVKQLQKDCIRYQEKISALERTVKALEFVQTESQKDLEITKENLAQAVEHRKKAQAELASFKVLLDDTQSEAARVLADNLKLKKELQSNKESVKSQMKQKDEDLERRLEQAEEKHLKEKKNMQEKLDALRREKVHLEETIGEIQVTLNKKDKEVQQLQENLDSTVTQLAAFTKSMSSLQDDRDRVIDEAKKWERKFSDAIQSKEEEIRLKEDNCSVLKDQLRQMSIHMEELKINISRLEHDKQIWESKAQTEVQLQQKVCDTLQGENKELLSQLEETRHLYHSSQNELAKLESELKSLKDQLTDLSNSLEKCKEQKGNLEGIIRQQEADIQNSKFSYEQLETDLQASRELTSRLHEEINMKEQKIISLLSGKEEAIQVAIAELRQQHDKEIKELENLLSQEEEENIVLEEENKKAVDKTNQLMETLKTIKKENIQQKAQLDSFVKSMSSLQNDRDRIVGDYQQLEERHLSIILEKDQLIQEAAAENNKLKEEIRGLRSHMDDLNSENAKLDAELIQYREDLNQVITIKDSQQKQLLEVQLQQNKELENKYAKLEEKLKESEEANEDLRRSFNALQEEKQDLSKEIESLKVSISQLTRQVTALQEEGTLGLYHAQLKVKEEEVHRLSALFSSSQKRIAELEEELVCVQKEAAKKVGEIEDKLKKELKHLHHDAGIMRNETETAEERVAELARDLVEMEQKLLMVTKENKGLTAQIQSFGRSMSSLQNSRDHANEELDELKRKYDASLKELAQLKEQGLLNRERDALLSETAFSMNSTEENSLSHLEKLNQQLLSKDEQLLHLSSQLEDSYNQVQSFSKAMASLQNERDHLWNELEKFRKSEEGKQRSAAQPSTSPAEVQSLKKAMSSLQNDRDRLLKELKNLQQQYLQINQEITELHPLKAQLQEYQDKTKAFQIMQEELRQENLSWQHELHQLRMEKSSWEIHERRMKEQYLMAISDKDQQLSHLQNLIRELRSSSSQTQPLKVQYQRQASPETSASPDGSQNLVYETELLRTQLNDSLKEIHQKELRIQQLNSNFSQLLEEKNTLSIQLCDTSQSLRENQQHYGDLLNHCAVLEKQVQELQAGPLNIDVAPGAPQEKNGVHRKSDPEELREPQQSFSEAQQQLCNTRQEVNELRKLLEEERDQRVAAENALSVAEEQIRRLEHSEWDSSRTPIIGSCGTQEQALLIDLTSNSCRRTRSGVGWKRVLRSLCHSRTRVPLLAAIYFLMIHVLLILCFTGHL
Sequence of UniProt Q9H6W3 (Q9H6W3 whole entry): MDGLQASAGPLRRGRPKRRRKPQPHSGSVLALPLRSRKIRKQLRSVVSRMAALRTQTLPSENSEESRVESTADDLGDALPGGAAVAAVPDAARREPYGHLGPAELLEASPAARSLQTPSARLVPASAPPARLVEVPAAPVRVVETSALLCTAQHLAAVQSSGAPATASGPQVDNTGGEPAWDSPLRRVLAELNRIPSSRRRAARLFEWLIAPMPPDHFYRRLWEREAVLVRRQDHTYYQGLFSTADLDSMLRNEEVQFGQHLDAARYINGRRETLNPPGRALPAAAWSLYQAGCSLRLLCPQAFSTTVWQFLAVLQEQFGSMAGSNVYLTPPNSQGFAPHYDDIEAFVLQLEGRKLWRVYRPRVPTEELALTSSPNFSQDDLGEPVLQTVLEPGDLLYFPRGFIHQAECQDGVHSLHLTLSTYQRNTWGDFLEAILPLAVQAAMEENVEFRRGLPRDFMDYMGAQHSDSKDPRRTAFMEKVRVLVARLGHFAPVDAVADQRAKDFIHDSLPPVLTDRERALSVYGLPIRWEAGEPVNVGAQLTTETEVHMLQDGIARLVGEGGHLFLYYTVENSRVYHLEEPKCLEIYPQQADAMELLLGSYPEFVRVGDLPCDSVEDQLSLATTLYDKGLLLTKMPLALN
Sequence of UniProt Q16875 (Q16875 whole entry): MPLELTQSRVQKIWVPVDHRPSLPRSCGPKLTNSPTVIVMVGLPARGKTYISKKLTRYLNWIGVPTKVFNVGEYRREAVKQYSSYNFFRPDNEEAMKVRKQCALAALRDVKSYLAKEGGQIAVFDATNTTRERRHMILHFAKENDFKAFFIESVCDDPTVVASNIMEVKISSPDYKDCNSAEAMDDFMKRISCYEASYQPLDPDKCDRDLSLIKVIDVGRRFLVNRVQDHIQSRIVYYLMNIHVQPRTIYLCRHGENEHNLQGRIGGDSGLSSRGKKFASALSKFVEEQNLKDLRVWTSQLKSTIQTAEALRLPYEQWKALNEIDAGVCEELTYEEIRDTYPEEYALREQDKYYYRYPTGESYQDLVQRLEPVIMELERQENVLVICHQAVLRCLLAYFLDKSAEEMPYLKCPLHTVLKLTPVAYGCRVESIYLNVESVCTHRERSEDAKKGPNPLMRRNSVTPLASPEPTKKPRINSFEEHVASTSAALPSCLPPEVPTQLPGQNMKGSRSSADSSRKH

Target	thermal stability z-score
RAD1 (UniProt O60671)	1.26
TVP23C|TVP23B	0.653
WDR70 (UniProt Q9NW82)	0.397
GSK3A (UniProt P49840)	-0.401
SRP68 (UniProt Q9UHB9)	-0.606
ABCF3 (UniProt Q9NUQ8)	-0.505
PGAM5 (UniProt Q96HS1)	0.0875
CAMK2D (UniProt Q13557)	0.111
METTL15 (UniProt A6NJ78)	0.0439
CHPF (UniProt Q8IZ52)	-1.5
VDAC3 (UniProt Q9Y277)	0.0571
DHCR24 (UniProt Q15392)	0.408
TELO2 (UniProt Q9Y4R8)	-0.413
TPRKB (UniProt Q9Y3C4)	-0.134
MTCH1 (UniProt Q9NZJ7)	-0.143
PCSK9 (UniProt Q8NBP7)	-0.578
AMDHD2 (UniProt Q9Y303)	0.0258
RPS6KB1 (UniProt P23443)	-0.0619
TCP1 (UniProt P17987)	-0.0358
PIK3C3 (UniProt Q8NEB9)	-0.102
TUBB (UniProt P07437)	0.525
GOLGB1 (UniProt Q14789)	-0.345
UCHL5 (UniProt Q9Y5K5)	0.0058
DYNC1LI2 (UniProt O43237)	-0.543

Target	thermal stability z-score
PFKFB3 (UniProt Q16875)	-0.179
NME4 (UniProt O00746)	-1.03
TRAPPC5 (UniProt Q8IUR0)	1.28
BICD2 (UniProt Q8TD16)	0.184
DNASE2 (UniProt O00115)	0.424
SHROOM1 (UniProt Q2M3G4)	-0.159
MRPS27 (UniProt Q92552)	-0.204
NO66 (UniProt Q9H6W3)	0.635
SORD (UniProt Q00796)	0.301
HPRT1 (UniProt P00492)	0.468
SRXN1 (UniProt Q9BYN0)	0.0621
PAGE1 (UniProt O75459)	0.147
SRSF7 (UniProt Q16629)	1.94
BCAT2 (UniProt O15382)	0.516
EIF2AK2 (UniProt P19525)	-0.0654
TFG (UniProt Q92734)	0.607
STAT2 (UniProt P52630)	-0.0423
SRSF1 (UniProt Q07955)	2.02
FBXO22 (UniProt Q8NEZ5)	0.0761
AKR7A2 (UniProt O43488)	0.2
HPS3 (UniProt Q969F9)	-0.021
SIGMAR1 (UniProt Q99720)	0.596
PCF11 (UniProt O94913)	-0.0765
GAR1 (UniProt Q9NY12)	-0.515

Target	thermal stability z-score
STAT6 (UniProt P42226)	0.0546
HMOX2 (UniProt P30519)	0.676
PPME1 (UniProt Q9Y570)	0.126
POLR3B (UniProt Q9NW08)	0.417
YME1L1 (UniProt Q96TA2)	-0.813
POFUT1 (UniProt Q9H488)	-3.78
ACOT7 (UniProt O00154)	0.237
WDR44 (UniProt Q5JSH3)	0.411
GSDMD (UniProt P57764)	0.143
GYS1 (UniProt P13807)	0.31
SLC25A46 (UniProt Q96AG3)	-0.105
OTULIN (UniProt Q96BN8)	-0.269
GUSB (UniProt P08236)	-0.178
USP10 (UniProt Q14694)	0.103
PLOD3 (UniProt O60568)	-5.29
SMARCE1 (UniProt Q969G3)	1.96
LYN (UniProt P07948)	0.264
MVB12A (UniProt Q96EY5)	0.652
ANO10 (UniProt Q9NW15)	-0.0281
KDM5C (UniProt P41229)	0.0486
ABL2 (UniProt P42684)	-0.0711
CANT1 (UniProt Q8WVQ1)	0.0524
PRKCDBP (UniProt Q969G5)	1.06

Same assay, conditions: HeLa; lipoamide concentration 100 µM; arsenate co-treatment: none

Target	thermal stability z-score
RAD1 (UniProt O60671)	0.445
TVP23C|TVP23B	1.19
WDR70 (UniProt Q9NW82)	0.0128
GSK3A (UniProt P49840)	-0.28
SRP68 (UniProt Q9UHB9)	-0.27
ABCF3 (UniProt Q9NUQ8)	-0.0312
PGAM5 (UniProt Q96HS1)	0.709
CAMK2D (UniProt Q13557)	0.215
METTL15 (UniProt A6NJ78)	-0.103
CHPF (UniProt Q8IZ52)	-0.387
VDAC3 (UniProt Q9Y277)	0.18
DHCR24 (UniProt Q15392)	0.354
TELO2 (UniProt Q9Y4R8)	-0.306
TPRKB (UniProt Q9Y3C4)	-0.764
MTCH1 (UniProt Q9NZJ7)	-0.0871
PCSK9 (UniProt Q8NBP7)	-0.462
AMDHD2 (UniProt Q9Y303)	0.186
RPS6KB1 (UniProt P23443)	0.679

Target	thermal stability z-score
TCP1 (UniProt P17987)	-0.0779
PIK3C3 (UniProt Q8NEB9)	-0.206
TUBB (UniProt P07437)	-0.284
GOLGB1 (UniProt Q14789)	-0.0596
UCHL5 (UniProt Q9Y5K5)	0.138
DYNC1LI2 (UniProt O43237)	-0.166
PFKFB3 (UniProt Q16875)	-0.149
NME4 (UniProt O00746)	-1.25
TRAPPC5 (UniProt Q8IUR0)	-0.246
BICD2 (UniProt Q8TD16)	0.121
DNASE2 (UniProt O00115)	0.747
SHROOM1 (UniProt Q2M3G4)	-0.157
MRPS27 (UniProt Q92552)	-0.193
NO66 (UniProt Q9H6W3)	0.483
SORD (UniProt Q00796)	-0.192
HPRT1 (UniProt P00492)	0.716
SRXN1 (UniProt Q9BYN0)	-0.041
